Measured values taken from patent publication US9274109B2, “Gut flora-derived extracellular vesicles, and method for searching for a disease model, vaccine, and candidate drug and for diagnosis using the same” (AEON MEDIX INC., priority 2009, dated 2016).
Where a name gives a salt, the structure may show the parent alone. Read-outs that look alike come from different tables or passages of the source.

Key:
[1] = test system: mouse peritoneal macrophages; assay: Ex vivo IL-6 release from mouse peritoneal macrophages with E. coli-derived extracellular vesicles; format: cell-based; details: 10 μM prodrug
Experimental: FIG. 41 is a graph showing IL-6 levels obtained by treating mouse peritoneal macrophages with 10 μM prodrugs in the presence of E. coli-derived extracellular vesicles (EC_EV)

[2] = test system: mouse macrophages (RAW 264.7); assay: In vitro screening: extracellular vesicle-induced IL-6 secretion from macrophages; format: cell-based; details: for activity at 10 µM: Mus musculus, RAW 264.7, vesicles 100 ng/ml
[3] = test system: mouse macrophages (RAW 264.7); assay: as above; format: cell-based; details: RAW264.7, 15 h, read-out: level of IL-6 as percentage of the positive control (kinase inhibitors)
Experimental: FIG. 35 is a schematic diagram showing the discovery of substances inhibitory of the gut flora-derived extracellular vesicles-induced release of IL-6. The mouse macrophages (RAW 264.7) were treated for 15 hours with the gut flora-derived extracellular vesicles (100 ng/ml) alone, separated by the method of Example 3, or in combination with a drug candidate (10 μM), in a 37° C. incubator. The culture media was collected and centrifuged at 4° C., 500×g for 10 min and then at 4° C., 3000×g for 20 min. IL-6 in the supernatant was quantitatively analyzed by ELISA. These processes account, at least in part, for a method for in vitro screening drug candidates inhibitory of the gut flora-derived extracellular vesicle-induced secretion of IL-6, by which drug candidates preventive or therapeutic of gut flora-derived extracellular vesicles-caused diseases can be provided.
According to the method established in Example 12, mouse macrophages (RAW 264.7) were treated with neither extracellular vesicles nor any drug candidate (negative control), with E. coli-derived extracellular vesicles (0.1 μg/ml) alone (positive control) or with the extracellular vesicles (0.1 μg/ml) in combination with 10 μM of one selected from among 80 different kinase inhibitors ((kinase inhibitor library, BIOMOL No. 2832: PD-98059, U-0126, SB-203580, H-7, H-9, AG-494, AG-825, Lavendustin A, RG-14620, Tytphostin 23, Tytphostin 25, Tytphostin 46, Tytphostin 47, Tytphostin 51, Tytphostin 1, Tytphostin 9, Tytphostin AG 1288, Tytphostin AG 1478, Tytphostin AG 1295, HNMPA, Damnacanthal, Piceatannol, AG-490, AG-126, AG-370, AG-879, LY 294002, Wortmannin, GF 109203X, Hypericin, Sphingosine, H-89, H-8, HA-1004, HA-1077, HDBA, KN-62, KN-93, ML-7, ML-9, 2-Aminopurine, N9-Isopropyl-olomoucine, Olomoucine, iso-olomoucine, Roscovitine, LFM-A13, SB-202190, ZM 336372, SU 4312, AG-1296, Rottlerin, Genistein, Daiazein, Erbstatin analog, Quercetin dehydrate, SU 1498, ZM 449829, DRB (5,6-Dichloro-1-b-D-ribofuranosylbenzimidazole), HBDDE (2,2′,3,3′,4,4′-Hexahydroxy-1,1′-biphenyl-6,6′-dimethanol dimethyl ether), Indirubin, Indirubin-3′-monoxime, Y-27632, Kenpaullone, Terreic acid, BML-257, BML-259, Apigenin, BML-265 (Erlotinib analog), Rapamycin). After 15 hours of treatment, IL-6 was quantitatively analyzed by ELISA.

C57BL/6 mice = assay: In vivo serum IL-6 in extracellular vesicle-induced sepsis mouse model; details: 10 mg/kg i.p.; vesicles 5 μg i.p.; 6 hours; ELISA
Experimental: In vivo assay was performed to examine whether the prodrugs discovered in Example 15 exert anti-inflammatory effects in the body. To this end, the sepsis mouse models that were established by the intraperitoneal injection of 5 μg of E. coli-derived extracellular vesicles into C57BL/6 mice (male, 6 weeks old, 4 mice in each group) as in Example 6 was intraperitoneally injected with Haloperidol and Doxepein at a dose of 10 mg/kg, each. Sera were taken 6 hours later.

[4] = test system: mouse macrophages (RAW 264.7); assay: IL-6 secretion from macrophages treated with extracellular vesicles from small intestinal fluid; format: cell-based; details: RAW 264.7, ELISA, versus vesicles alone
From the text: Extracellular vesicles were separated from small intestinal fluids of normal mice and DSS-induced mouse model of […]. To this end, mice were operated on to excise the small intestine. The peyer's patch and liquid were removed from the excised small intestine which was then cut at regular lengths of about 5 cm. The intestinal pieces were transversely cut and washed with physiological saline to remove impurities therefrom. They were again cut into pieces with dimensions of 1 cm×1 cm and vortexed five times for five sec per time in 30 mL of physiological saline. After the removal of intestinal tissues and impurities by centrifugation, the supernatant was ultra-centrifuged to separate extracellular vesicles.
FIGS. 3 and 4 show the secretion of the inflammatory cytokine IL-6 in mouse macrophages (RAW 264.7) treated with various concentrations of the extracellular vesicles separated from the small intestinal fluids of normal mice and DSS-induced mouse models of IBD.
FIG. 5 provides the results after an experiment was done to see whether the exracellular vesicles from the DSS-induced mouse model of IBD contained those derived from Gram-negative bacteria.

[5] = RAW264.7, 15 h, read-out: IL-6 level as percentage of the positive control (prodrugs)

CN(C)CCC=C1c2ccccc2CCc2ccccc21 [Amitriptyline]
IL-6 release from mouse peritoneal macrophages [1]: inhibitory effect
activity at 10 µM [2, 5]: < 80%

O=c1cc(-c2ccc(O)cc2)oc2cc(O)cc(O)c12 [Apigenin, 5,7-dihydroxy-2-(4-hydroxyphenyl)chromen-4-one]
activity at 10 µM [3]: < 50%

CC(C)c1cnc(NC(=O)Cc2ccccc2)s1 [BML-259, N-(5-Isopropylthiazol-2-yl)phenylacetamide]
activity at 10 µM [3]: < 50%

CN(C)CCC=C1c2ccccc2C=Cc2ccccc21 [Cyclobenzaprine]
IL-6 release from mouse peritoneal macrophages [1]: inhibitory effect
activity at 10 µM [2, 5]: < 80%

OC[C@H]1O[C@H](n2cnc3cc(Cl)c(Cl)cc32)[C@@H](O)[C@H]1O [DRB, (2S,3S,4R,5R)-2-(5,6-dichlorobenzimidazol-1-yl)-5-(hydroxymethyl)oxolane-3,4-diol]
activity at 10 µM [3]: < 50%

CNCCCN1c2ccccc2CCc2ccccc21 [Desipramine]
IL-6 release from mouse peritoneal macrophages [1]: inhibitory effect
activity at 10 µM [2, 5]: < 80%

CN(C)CCC=C1c2ccccc2COc2ccccc21 [Doxepin]
IL-6 release from mouse peritoneal macrophages [1]: inhibitory effect
serum IL-6 level (C57BL/6 mice): effectively suppressed
activity at 10 µM [2, 5]: < 80%

Cl.Cl.OCCN1CCN(CCCN2c3ccccc3Sc3ccc(C(F)(F)F)cc32)CC1 [Fluphenazine dichloride]
IL-6 release from mouse peritoneal macrophages [1]: inhibitory effect

CN(C)CCCn1cc(C2=C(c3c[nH]c4ccccc34)C(=O)NC2=O)c2ccccc21 [GF109203X, 3-[1-[3-(dimethylamino)propyl]indol-3-yl]-4-(1H-indol-3-yl)pyrrole-2,5-dione]
activity at 10 µM [3]: < 50%

CC1CNCCN1S(=O)(=O)c1cccc2cnccc12 (centres unmarked) [H-7, 5-(2-methylpiperazin-1-yl)sulfonylisoquinoline dihydrochloride]
activity at 10 µM [3]: < 50%

O=C(CCCN1CCC(O)(c2ccc(Cl)cc2)CC1)c1ccc(F)cc1 [Haloperidol]
IL-6 release from mouse peritoneal macrophages [1]: inhibitory effect
serum IL-6 level (C57BL/6 mice): effectively suppressed
activity at 10 µM [2, 5]: < 80%

CN(C)CCCN1c2ccccc2CCc2ccccc21 [Imipramine]
IL-6 release from mouse peritoneal macrophages [1]: inhibitory effect
activity at 10 µM [2, 5]: < 80%

O=C1N=c2ccccc2=C1c1[nH]c2ccccc2c1NO [Indirubin-3′monoxime, 3-[3-(hydroxyamino)-1H-indol-2-yl]indol-2-one]
activity at 10 µM [3]: < 50%

O=C1Cc2c([nH]c3ccc(Br)cc23)-c2ccccc2N1 [Kenpaullone, 9-bromo-7,12-dihydro-5H-indolo[3,2-d][1]benzazepin-6-one]
activity at 10 µM [3]: < 50%

O=c1cc(N2CCOCC2)oc2c(-c3ccccc3)cccc12 [LY294002, 2-morpholin-4-yl-8-phenylchromen-4-one]
activity at 10 µM [3]: < 50%

O=S(=O)(c1cccc2c(I)cccc12)N1CCCNCC1 [ML-7, 1-(5-iodonaphthalen-1-yl)sulfonyl-1,4-diazepane hydrochloride]
activity at 10 µM [3]: < 50%

O=S(=O)(c1cccc2c(Cl)cccc12)N1CCCNCC1 [ML-9, 1-(5-chloronaphthalen-1-yl)sulfonyl-1,4-diazepane hydrochloride]
activity at 10 µM [3]: < 50%

CNCCCC12CCC(c3ccccc31)c1ccccc12 [Maprotiline]
IL-6 release from mouse peritoneal macrophages [1]: inhibitory effect
activity at 10 µM [2, 5]: < 80%

Cc1ccccc1C(OCCN(C)C)c1ccccc1 (centres unmarked) [Orphenadrine]
IL-6 release from mouse peritoneal macrophages [1]: inhibitory effect
activity at 10 µM [2, 5]: < 80%

COc1ccc2c(c1)c(OC(C)C)c(C(N)=O)[s+]2[O-] (centres unmarked) [PD-144795, 5-methoxy-3-(1-methylethoxy)benzo(b)thiophene-2-carboxamide-1-oxide]
IL-6 secretion at graded concentrations ([2]; 0.1, 1, 5, 10 μM, vesicles 100 ng/ml): inhibits IL-6 secretion in a dose-dependent manner
activity at 10 µM ([2]; RAW264.7, 10 μM, read-out: IL-6 level as percentage of the positive control (phosphatase inhibitors)): < 50%

CC(C)(C)c1ccc(C(O)CCCN2CCC(C(O)(c3ccccc3)c3ccccc3)CC2)cc1 (centres unmarked) [Terfenadine]
IL-6 release from mouse peritoneal macrophages [1]: inhibitory effect
activity at 10 µM [2, 5]: < 80%

Cc1c(Cl)cccc1Nc1ccccc1C(=O)O [Tolfenamic acid]
IL-6 release from mouse peritoneal macrophages [1]: inhibitory effect
activity at 10 µM [2, 5]: < 80%

O=c1n(CCCN2CCN(c3cccc(Cl)c3)CC2)nc2ccccn12 [Trazodone]
IL-6 release from mouse peritoneal macrophages [1]: inhibitory effect
activity at 10 µM [2, 5]: < 80%

NS(=O)(=O)c1cc2c(cc1Cl)NC(C(Cl)Cl)NS2(=O)=O (centres unmarked) [Trichlormethiazide]
activity at 10 µM [2, 5]: < 80%

COc1ccc(CCN(C)CCCC(C#N)(c2ccc(OC)c(OC)c2)C(C)C)cc1OC (centres unmarked) [Verapamil]
activity at 10 µM [2, 5]: < 80%

C=CC(=O)c1ccc2ccccc2c1 [ZM449829, 1-(2-Naphthalenyl)-2-propen-1-one]
activity at 10 µM [3]: < 50%

polymyxin B
secretion of IL-6 induced by extracellular vesicles from DSS-induced IBD mice, in combination with polymyxin B [4]: decreased
